Measured values as given in patent US8435969B2, “Method and compositions for treating hematological malignancies” (Gilead Sciences, Inc., priority 2006, dated 2013).

How the values were obtained:
[1] = dog, in vivo, iv, 0.2 mg/kg
Method: Distribution of Prodrugs between PBMCs and Plasma in Dogs • Dogs were administered various prodrugs of cpr-PMEDAP as 0.2 mg/kg 30 minute IV infusions. […] Alanine was the L isomer. • Blood was collected into potassium EDTA and separated by centrifugation. Primary blood mononuclear cells (PBMCs) were collected using CPT tubes (sodium citrate). • For analysis, plasma samples were precipitated by addition of 100 μL acetonitirile containing internal standards (D4AP and TDF) to 100 μL of plasma for prodrug analysis. After protein precipitation by centrifugation, 100 μA was transferred into another tube to be dried and then reconstituted in 100 μL water with 0.2% formic acid. An aliquot of 20 μL was injected onto the column for LC/MS/MS analysis. Analysis was done using a 150×2.0 mm, 4 μm Synergi Fusion-RP 80A column (Phenomenex) and a multistage linear gradient from 0.5 to 99% acetonitrile in the presence of 0.2% formic acid at 0.25 mL/min. Analytes were detected using a Sciex API-4000 mass spectrometer using electrospray ionization in positive MRM mode. […] Separate aliquots of cells from each time point resuspended in 100% serum were used to establish the cell quantities in each sample. Cell samples were normalized to 15×10^6 cells per sample. Varying degrees of hemolyses have been observed. […] 20 μL was injected for LC/MS/MS analysis using a 50×2.0 mm, 4 μm Synergi Hydro-RP 80A column (Phenomenex) and a multistage linear gradient from 0 to 95% acetonitrile in the presence of 0.2% formic acid at 1.0 mL/min. Analytes were detected using a Sciex API-4000 mass spectrometer using electrospray ionization in positive MRM mode. • After drying, samples for dephosphorylation were treated with 1 U of calf intestinal phosphatase (alkaline phosphatase, Sigma) for 2 h in manufacturer provided buffer. Samples were then adjusted to 60% acetonitrile dried and resuspended in 60% acetonitrile containing internal standards (TDF and D4AP) and analyzed for cpr-PMEDAP as described for direct PBMC analysis.

[2] = Solubility of the succinate salt; format: physicochemical; conditions: pH 4.2-4.7
[3] = Storage stability in aqueous solution; format: physicochemical; conditions: 60 hours
From the text: Parenteral (sterile aqueous) solutions of the organic acid salts of compound 1 optionally comprise a stabilizing amount of carbohydrate, typically a saccharide (mono, di or polysaccharides), glycoside or sugar alcohol (alditols). Polysaccharides should be biodegradable upon parenteral injection or infusion and include dextrins and starches, typically 3-10 units. Representative carbohydrates include hexoses, aldoses, aldohexoses, aldotrioses (e.g. glyceraldehyde), aldotetroses (e.g. erythrose), aldopentoses (e.g. arabinose), ketoses, ketohexose (e.g. fructose), ketopentoses (e.g. ribulose), maltose, sucrose, lactose, ribose, xylose, lyxose, allose, altrose, glucose, mannose, gulose, idose, galactose and talose. Of particular interest are carbohydrates conventionally used in parenteral formulations, e.g., mannitol or dextrose. The optical character of the carbohydrate is not critical, but it is desirable for the configuration to be such that the carbohydrate is biodegradable upon parenteral administration. […] On the other hand, storage in buffered solutions at pH 2, 7 and 9 under the same conditions lead to substantial degradation of compound 1: About 100%,18% and 76% by weight, respectively.

[4] = Hygroscopicity; format: physicochemical; conditions: solid form

## C[C@H](NP(=O)(COCCn1cnc2c(NC3CC3)nc(N)nc21)Oc1ccccc1)C(=O)OC(C)(C)C (single isomer, unassigned) [MonoAlatBu(A)]
[1]
  PBMC to Plasma ratio: 19

## CC(C)OC(=O)[C@H](C)NP(=O)(COCCn1cnc2c(NC3CC3)nc(N)nc21)N[C@@H](C)C(=O)OC(C)C [BisAlaiPr]
[1]
  PBMC to Plasma ratio: 1.2

## C[C@H](NP(=O)(COCCn1cnc2c(NC3CC3)nc(N)nc21)Oc1ccccc1)C(=O)OC(C)(C)C (stereo partly drawn) [MonoAlatBu]
[1]
  PBMC to Plasma ratio: 12

## CCOC(=O)[C@H](C)NP(=O)(COCCn1cnc2c(NC3CC3)nc(N)nc21)N[C@@H](C)C(=O)OCC [compound 1 succinate]
[2]
  solubility: > 39 mg/mL
[3]; 5% dextrose (by weight of solution; pH about 4.2, unbuffered), 40° C.
  Degradation on storage: without significant degradation
[3]; buffered solution pH 2, 40° C.
  Degradation on storage: About 100 % by weight
[3]; buffered solution pH 9, 40° C.
  Degradation on storage: ~76 % by weight

## CC(C)OC(=O)[C@H](C)NP(=O)(COCCn1cnc2c(NC3CC3)nc(N)nc21)Oc1ccccc1 (stereo partly drawn) [MonoAlaiPr]
[1]
  PBMC to Plasma ratio: 17

## CCOC(=O)C(C)NP(=O)(COCCn1cnc2c(NC3CC3)nc(N)nc21)NC(C)C(=O)OCC (stereo not drawn) [Compound 1]
[4]
  Hygroscopicity: hygroscopic
